Test results published in patent US5438048A, “Methylenebisphosphonic acid derivatives” (Leiras Oy, priority 1990, dated 1995).

What was measured:
[1] = Binding to hydroxyapatite (effect of bisphosphonates and their derivatives on hydroxyapatite)
[2] = Inhibition of hydroxyapatite growth (calcium phosphate crystal formation and precipitation inhibiting activity); type: biochemical; parameters: key to the marks not given beside the values; conditions: at 100 μM
mouse calvaria = assay: Parathyroid hormone stimulated bone resorption inhibition activity in vitro in mouse calvaria; type: cell-based
Protocol: (§1) In addition, the parathyroid hormone stimulated bone resorption inhibition activity in vitro in mouse calvaria, as well as inhibition of retinoid induced bone resorption in thyroparathyroidectomised rats in vivo were determined (Reynolds & Dingle (Calc Tiss Res 1970; 4:339, and Trechsel et al. (J Clin Invest 1987; 80:1679)) (Table 2).

[3] = tested on: retinoid induced bone resorption; assay: Inhibition of retinoid induced bone resorption in thyroparathyroidectomised rats in vivo; conditions: 150 μmole/kg
Protocol: as §1

For `CCCCC(O)(P(=O)(O)O)P(=O)(O)OC(C)C` (stereo not shown) [(1-hydroxypentylidene)bisphosphonic acid monoisopropyl ester], the Ki [1] was 15.4 µM and the Inhibition of growth [2] was “++”.

In the case of `CCCCC(O)(P(=O)(O)O)P(=O)(O)O` [(1-Hydroxypentylidene)bisphosphonate, (1-Hydroxypentylidene)-bisphosphonate, reference compound], the “Inhibition of resorption (%)” value (mouse calvaria; 100 μm) is reported as 56%.

In the case of `CC(C)OP(=O)(O)C(C)(O)P(=O)(O)O` (stereo not shown) [(1-Hydroxyethylidene)bisphosphonic acid monoisopropyl ester], the Ki [1] is reported as 7.3 µM and the Inhibition of growth [2] is reported as “+++”.

For `O=P(O)(O)C(Cl)(Cl)P(=O)(O)O` [Clodronate, reference compound], the Ki [1] was 1.3 µM and the Inhibition of growth [2] was “+++”.

For `CCCCC(O)(P(=O)(O)O)P(=O)(O)OC` (stereo not shown) [(1-hydroxypentylidene)bisphosphonic acid monomethyl ester], the “Inhibition of resorption (%)” value [3] was 52%, the Ki [1] was 11.8 µM and the “Inhibition of resorption (%)” value (mouse calvaria; 100 μm) was 7%. The “Inhibition of resorption (%)” value (mouse calvaria; 1000 μm) was 47% and the Inhibition of growth [2] was “+++”.

Compound `CC(O)(P(=O)(O)O)P(=O)(O)O` [Etidronate, reference compound] has a Ki [1] of 0.9 µM.
